Measurements published in patent US20120022116A1, “COMPOSITIONS AND METHODS FOR THE TREATMENT OF PATHOLOGICAL CONDITION(S) RELATED TO GPR35 AND/OR GPR35-HERG COMPLEX” (priority 2010, published 2012).

Assays:
[1] = target: T1, GPR35 (Homo sapiens, UniProt Q9HC97); experiment: Ca2+ mobilization assay (Fluo-4) in HEK-GPR35-Gqo5 cells; assay type: cell-based; details: for Ca2+ moblization (HEK-GPR35-Gqo5): HEK293 cells co-expressing GPR35 and Gqo5, Fluo-4, compounds 10 μM; for Ca2+ mobilization signal in cells co-expressing GPR35 and Gqo5: engineered HEK293, 10 μM
T1 construct: myc; expressed in transfected cells; host or cells: HEK293, transient co-transfection (Lipofectamine LTX)

[2] = tested on: GPR35; experiment: DMR desensitization / antagonism mode against GPR35 agonist-induced DMR in HT29 cells; assay type: cell-based, human; details: HT29 cells pretreated with compound, then GPR35 agonist
[3] = tested on: hERG channel; experiment: Cross-desensitization DMR assay against hERG activator mallotoxin-induced DMR in HT29 cells; details: HT29 cells pretreated with compound, then hERG activator mallotoxin
[4] = target: hERG channel (Homo sapiens, UniProt Q12809); experiment: Automated patch clamp recording of hERG tail current (IonWorks); details: hERG tail current ratio post/pre-compound, 50 uM
hERG channel (Homo sapiens, UniProt Q12809), sequence (Q12809 whole entry): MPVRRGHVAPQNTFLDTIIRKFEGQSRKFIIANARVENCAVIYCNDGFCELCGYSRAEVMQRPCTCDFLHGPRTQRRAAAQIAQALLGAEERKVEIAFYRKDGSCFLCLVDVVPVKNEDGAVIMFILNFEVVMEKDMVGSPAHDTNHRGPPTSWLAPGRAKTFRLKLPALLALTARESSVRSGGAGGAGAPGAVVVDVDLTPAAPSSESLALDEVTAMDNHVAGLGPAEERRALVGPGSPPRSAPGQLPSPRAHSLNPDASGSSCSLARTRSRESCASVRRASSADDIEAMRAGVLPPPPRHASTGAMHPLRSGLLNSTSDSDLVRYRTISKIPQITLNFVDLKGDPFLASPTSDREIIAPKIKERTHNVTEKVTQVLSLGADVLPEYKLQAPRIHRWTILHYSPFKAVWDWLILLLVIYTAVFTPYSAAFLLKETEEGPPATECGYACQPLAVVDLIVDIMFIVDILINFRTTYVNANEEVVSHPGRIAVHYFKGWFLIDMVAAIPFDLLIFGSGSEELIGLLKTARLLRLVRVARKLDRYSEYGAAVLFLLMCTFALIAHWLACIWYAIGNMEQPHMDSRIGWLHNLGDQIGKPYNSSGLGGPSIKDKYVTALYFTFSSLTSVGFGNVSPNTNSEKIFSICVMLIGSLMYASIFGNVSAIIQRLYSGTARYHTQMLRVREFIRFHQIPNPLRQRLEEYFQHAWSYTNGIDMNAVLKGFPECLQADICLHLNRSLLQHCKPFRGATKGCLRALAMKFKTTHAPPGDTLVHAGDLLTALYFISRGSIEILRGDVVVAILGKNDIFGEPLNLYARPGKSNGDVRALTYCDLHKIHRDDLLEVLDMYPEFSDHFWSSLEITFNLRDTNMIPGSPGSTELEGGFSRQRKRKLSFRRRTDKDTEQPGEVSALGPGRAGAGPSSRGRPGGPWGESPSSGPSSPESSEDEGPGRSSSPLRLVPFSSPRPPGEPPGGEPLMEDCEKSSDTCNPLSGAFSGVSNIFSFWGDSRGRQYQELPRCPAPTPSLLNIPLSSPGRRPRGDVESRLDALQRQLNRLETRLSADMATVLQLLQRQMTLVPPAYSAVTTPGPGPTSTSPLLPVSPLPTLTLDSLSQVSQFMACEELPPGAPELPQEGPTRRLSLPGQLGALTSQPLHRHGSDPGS

T1 sequence (Q9HC97 whole entry): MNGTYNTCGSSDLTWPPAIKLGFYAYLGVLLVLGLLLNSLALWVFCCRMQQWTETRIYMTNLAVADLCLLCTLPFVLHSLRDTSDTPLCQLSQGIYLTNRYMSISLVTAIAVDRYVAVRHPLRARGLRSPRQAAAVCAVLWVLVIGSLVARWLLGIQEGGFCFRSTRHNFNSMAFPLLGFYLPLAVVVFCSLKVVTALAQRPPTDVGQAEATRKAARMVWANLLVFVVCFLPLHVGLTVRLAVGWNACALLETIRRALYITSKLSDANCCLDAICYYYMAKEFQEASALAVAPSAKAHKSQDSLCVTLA

| Structure (SMILES) | Ca2+ moblization (HEK-GPR35-Gqo5) [1] | Ca2+ mobilization signal in cells co-expressing GPR35 and Gqo5 [1] | Desenstization to GPR35 agonist [2] | Desenstization to hERG activator [3] | Electrophysiology (HEK-hERG) [4] |
| --- | --- | --- | --- | --- | --- |
| O=C([O-])c1ccc(-c2ccc(/C=C/c3ccc(N(CCO)CCO)cc3)s2)s1.[Na+] [Compound 29] | active | – | desenstized | partially desenstized | activator |
| N#C/C(=C\c1ccc(O)c(O)c1)C(N)=O [Tyrphostin 46] | – | – | desenstized | inactive | inactive |
| N#CC(C#N)=C(N)/C(C#N)=C/c1cc(O)c(O)c(O)c1 [Tyrphostin 51] | – | – | desenstized | partially desenstized | inactive |
| CC1=C(C#N)C(=C(C#N)C#N)OC1(C)c1ccc(Cl)c(Cl)c1 (centres unmarked) [Compound 07, 2-dicyanomethylene-3-cyano-4,5-dimethyl-5-[3′,4′-dichlorophenyl]-2,5-dihydrofuran] | active | – | desenstized | – | inactive |
| N#C/C(=C\c1ccc(O)c(O)c1)C(N)=S [Tyrphostin 47] | – | – | desenstized | partially desenstized | activator |
| CC1=C(C#N)C(=C(C#N)C#N)OC1(C)C [Compound 10, 2-dicyanomethylene-3-cyano-4,5,5-trimethyl-2,5-dihydrofuran] | active | – | desenstized | – | inactive |
| CC1=C(C#N)C(=C(C#N)C(N)=C(C#N)C#N)OC1(C)C [Compound 08, 2-cyano-2-(1-amino-2,2-dicyanovinyl)methylene-3-cyano-4,5,5-trimethyl-2,5-dihydrofuran] | active | – | desenstized | – | inactive |
| O=C(O)c1cc2sccc2s1 [Compound 11, thieno[3,2-b]thiophene-2-carboxylic acid] | inactive | – | desenstized | – | inactive |
| CN(CCO)c1ccc(C=Cc2ccc(C(=O)[O-])s2)cc1.[Li+] [Compound 26, 5-{2-[4-(N-methyl, N-2-hydroxyethyl-amino)phenyl]ethenyl}-thiophene-2-formate lithium] | active | – | desenstized | – | inactive |
| CC1=C(C#N)C(=C(C#N)C#N)OC1(C)c1ccc(Cl)c(Cl)c1Cl (centres unmarked) [Compound 06, 2-dicyanomethylene-3-cyano-4,5-dimethyl-5-[2′,3′,4′-trichlorophenyl]-2,5-dihydrofuran] | inactive | – | desenstized | – | inactive |
| Cc1ccc(Cl)c(Nc2ccccc2C(=O)O)c1Cl [Meclofenamate] | inactive | – | desenstized | partially desenstized | – |

Further lines, with some results ahead:

| Ca2+ moblization (HEK-GPR35-Gqo5) [1] | Ca2+ mobilization signal in cells co-expressing GPR35 and Gqo5 [1] | Structure (SMILES) | Desenstization to GPR35 agonist [2] | Desenstization to hERG activator [3] | Electrophysiology (HEK-hERG) [4] |
| --- | --- | --- | --- | --- | --- |
| active | active | O=C(O)c1ccccc1Nc1cccc(C(F)(F)F)c1 [Flufenamic acid] | desenstized | desenstized | activator |
| active | active | Cc1c(Cl)cccc1Nc1ccccc1C(=O)O [Tolfenamic acid] | desenstized | – | blocker |
| active | active | O=C(O)c1cc([N+](=O)[O-])ccc1NCCCc1ccccc1 [NPPB] | desenstized | – | activator |
| inactive | – | Cc1csc2c1sc1cc(C(=O)O)sc12 [Compound 22, 5-methyl-dithieno[3,2-b:2′,3′-d]thiophene-2-carboxylic acid] | desenstized | – | inactive |
| active | – | COC(=O)c1ccc(C=Cc2ccc(N(C)CCO)cc2)s1 [Compound 25, methyl-5-{2-[4-(N-methyl,N-2-hydroxyethyl-amino)phenyl]ethenyl}-thiophene-2-formate] | desenstized | – | inactive |
| inactive | – | CC1=C(CC(=O)O)c2cc(F)ccc2/C1=C\c1ccc([S+](C)[O-])cc1 (centres unmarked) [Sulindac] | desenstized | – | blocker |
| inactive | – | O=C1OC(OC(=O)c2cccnc2Nc2cccc(C(F)(F)F)c2)c2ccccc21 (centres unmarked) [Talniflumate] | desenstized | – | inactive |
| inactive | – | OCc1ccc(-c2cccs2)s1 [Compound 27, 2,2′-bithiophene-5-methanol] | inactive | – | blocker |
